The structures appear in SMILES notation.

These results are taken from ChEMBL document CHEMBL3351390, “DNA repair and redox activities and inhibitors of apurinic/apyrimidinic endonuclease 1/redox effector factor 1 (APE1/Ref-1): a comparative analysis and their scope and limitations toward anticancer drug development” (J Med Chem, 2014).

Sequence of DNA repair nuclease/redox regulator APEX1 (P27695 whole entry): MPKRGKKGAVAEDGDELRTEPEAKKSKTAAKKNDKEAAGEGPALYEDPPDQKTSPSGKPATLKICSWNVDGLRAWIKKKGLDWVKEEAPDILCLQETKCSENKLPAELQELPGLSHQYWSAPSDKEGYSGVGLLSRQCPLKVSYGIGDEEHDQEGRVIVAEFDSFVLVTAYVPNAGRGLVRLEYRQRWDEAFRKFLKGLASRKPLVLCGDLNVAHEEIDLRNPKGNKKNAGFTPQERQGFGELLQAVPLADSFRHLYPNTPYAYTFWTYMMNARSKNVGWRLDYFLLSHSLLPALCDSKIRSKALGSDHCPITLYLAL

The experiment concerns the target DNA repair nuclease/redox regulator APEX1 (Homo sapiens, UniProt P27695). The experiment in a line: Inhibition of human APE1 after 25 mins by fluorescence assay.
A word on the IC50: it is the concentration needed to halve the response being measured. A higher IC50 goes with weaker potency in that assay. `O=C(O)C1=CC(=C(c2ccc(O)c(C(=O)O)c2)c2ccc(O)c(C(=O)O)c2)C=CC1=O` [AURINTRICARBOXYLIC ACID] displayed an IC50 of 10 µM.
Turning to `O=C(O)c1cc2cccc([N+](=O)[O-])c2[nH]1`, the IC50 amounted to 3 µM.
In the case of `Nc1c(S(=O)(=O)O)cc(Nc2ccc(Nc3nc(Cl)nc(Nc4ccc(S(=O)(=O)O)cc4)n3)c(S(=O)(=O)O)c2)c2c1C(=O)c1ccccc1C2=O` it was 0.25 µM.
